Assay results: PMC10035947, “Development of novel anilinoquinazoline-based carboxylic acids as non-classical carbonic anhydrase IX and XII inhibitors” (Journal of Enzyme Inhibition and Medicinal Chemistry, 2023)

Assays:
EKVX = experiment: NCI SRB assay; type: cell-based, human; settings: for GI%: 10 μM; for Growth Percent: 1.00E-5 Molar
NCI-H23 = experiment: NCI SRB assay; type: cell-based, human; settings: for GI%: NCI-H23, 10 μM; for Growth Percent: NCI-H23, 1.00E-5 Molar
CAKI-1 = experiment: NCI SRB assay; type: cell-based, human; settings: for GI%: CAKI-1, 10 μM; for Growth Percent: CAKI-1, 1.00E-5 Molar
SF-268 = experiment: NCI SRB assay; type: cell-based, human; settings: for GI%: SF-268, 10 μM; for Growth Percent: SF-268, 1.00E-5 Molar
IGROV1 = experiment: NCI SRB assay; type: cell-based, human; settings: for GI%: IGROV1, 10 μM; for Growth Percent: IGROV1, 1.00E-5 Molar
SF-295 = experiment: NCI SRB assay; type: cell-based, human; settings: for GI%: SF-295, 10 μM; for Growth Percent: SF-295, 1.00E-5 Molar
ACHN = experiment: NCI SRB assay; type: cell-based, human; settings: for GI%: 10 μM; for Growth Percent: 1.00E-5 Molar
UACC-62 = experiment: NCI SRB assay; type: cell-based, human; settings: for GI%: UACC-62, 10 μM; for Growth Percent: UACC-62, 1.00E-5 Molar
NCI-H226 = experiment: NCI SRB assay; type: cell-based, human; settings: for GI%: NCI-H226, 10 μM; for Growth Percent: NCI-H226, 1.00E-5 Molar
LOX IMVI = experiment: NCI SRB assay; type: cell-based, human; settings: for GI%: 10 μM; for Growth Percent: 1.00E-5 Molar
SNB-19 = experiment: NCI SRB assay; type: cell-based, human; settings: for GI%: SNB-19, 10 μM; for Growth Percent: SNB-19, 1.00E-5 Molar
RPMI-8226 = experiment: NCI SRB assay; type: cell-based, human; settings: for GI%: RPMI-8226, 10 μM; for Growth Percent: RPMI-8226, 1.00E-5 Molar
NCI/ADR-RES = experiment: NCI SRB assay; type: cell-based, human; settings: for GI%: 10 μM; for Growth Percent: 1.00E-5 Molar
MCF7 = experiment: NCI SRB assay; type: cell-based, human; settings: for GI%: MCF7, 10 μM; for Growth Percent: MCF7, 1.00E-5 Molar
DU-145 = experiment: NCI SRB assay; type: cell-based, human; settings: for GI%: DU-145, 10 μM; for Growth Percent: DU-145, 1.00E-5 Molar
SK-OV-3 = experiment: NCI SRB assay; type: cell-based, human; settings: for GI%: SK-OV-3, 10 μM; for Growth Percent: SK-OV-3, 1.00E-5 Molar
hCA IX = biological target: T1, hCA IX (Homo sapiens, UniProt Q16790); experiment: stopped flow CO2 hydrase assay; type: biochemical; settings: for Selectivity ratio II/IX: KI hCA II / KI hCA IX; for Ki: mean from 3 assays
T1 construct: made in house
Procedure, shortened: (§1)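 Recombinant enzymes assayed by stopped-flow CO2 hydration using 0.2 mM phenol red at 557 nm in 20 mM Hepes pH 7.5 with 20 mM Na2SO4, CO2 1.7–17 mM. Inhibitor and enzyme preincubated 15 min at room temperature.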

hCA I = biological target: T2, hCA I (Homo sapiens, UniProt P00915); experiment: stopped flow CO2 hydrase assay; type: biochemical; settings: mean from 3 assays
T2 construct: made in house
Procedure, shortened: as §1

hCA XII = biological target: T3, hCA XII (Homo sapiens, UniProt O43570); experiment: stopped flow CO2 hydrase assay; type: biochemical; settings: for Selectivity ratio I/XII: KI hCA I / KI hCA XII; for Selectivity ratio II/XII: KI hCA II / KI hCA XII; for Ki: mean from 3 assays
T3 construct: made in house
Procedure, shortened: as §1

CCRF-CEM = experiment: NCI SRB assay; type: cell-based, human; settings: for GI%: 10 μM; for Growth Percent: 1.00E-5 Molar
BT-549 = experiment: NCI SRB assay; type: cell-based, human; settings: for GI%: BT-549, 10 μM; for Growth Percent: BT-549, 1.00E-5 Molar
A498 = experiment: NCI SRB assay; type: cell-based, human; settings: for GI%: A498, 10 μM; for Growth Percent: A498, 1.00E-5 Molar
NCI-H322M = experiment: NCI SRB assay; type: cell-based, human; settings: for GI%: 10 μM; for Growth Percent: 1.00E-5 Molar
HL-60(TB) = experiment: NCI SRB assay; type: cell-based, human; settings: HL-60(TB); for GI%: 10 μM; for Growth Percent: 1.00E-5 Molar
HOP-92 = experiment: NCI SRB assay; type: cell-based, human; settings: for GI%: HOP-92, 10 μM; for Growth Percent: HOP-92, 1.00E-5 Molar
HCT-15 = experiment: NCI SRB assay; type: cell-based, human; settings: for GI%: HCT-15, 10 μM; for Growth Percent: HCT-15, 1.00E-5 Molar
SK-MEL-2 = experiment: NCI SRB assay; type: cell-based, human; settings: for GI%: SK-MEL-2, 10 μM; for Growth Percent: SK-MEL-2, 1.00E-5 Molar
UACC-257 = experiment: NCI SRB assay; type: cell-based, human; settings: for GI%: UACC-257, 10 μM; for Growth Percent: UACC-257, 1.00E-5 Molar

T3 sequence (O43570 25-354): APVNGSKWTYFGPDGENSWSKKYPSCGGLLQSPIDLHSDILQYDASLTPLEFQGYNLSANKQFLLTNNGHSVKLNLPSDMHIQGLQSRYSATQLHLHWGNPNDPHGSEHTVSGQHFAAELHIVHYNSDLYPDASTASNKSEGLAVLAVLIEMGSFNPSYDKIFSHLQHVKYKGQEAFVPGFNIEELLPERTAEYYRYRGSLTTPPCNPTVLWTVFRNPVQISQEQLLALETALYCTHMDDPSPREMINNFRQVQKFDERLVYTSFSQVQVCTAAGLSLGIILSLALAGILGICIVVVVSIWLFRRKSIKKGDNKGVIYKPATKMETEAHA
T2 sequence (P00915 whole entry): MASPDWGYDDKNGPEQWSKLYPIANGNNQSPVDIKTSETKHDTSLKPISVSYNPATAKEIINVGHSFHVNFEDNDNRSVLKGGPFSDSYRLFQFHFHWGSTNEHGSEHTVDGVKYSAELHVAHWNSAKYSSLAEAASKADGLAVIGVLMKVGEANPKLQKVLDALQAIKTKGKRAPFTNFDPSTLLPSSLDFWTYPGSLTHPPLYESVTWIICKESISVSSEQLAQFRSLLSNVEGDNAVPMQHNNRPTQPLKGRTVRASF

Cc1ccc(-c2nc(Nc3cccc(C(=O)O)c3)c3ccccc3n2)cc1 [7b, 3-((2-(p-Tolyl)quinazolin-4-yl)amino)benzoic acid]
GI% (EKVX): 41%
Growth Percent (EKVX): 58.70%
GI% (NCI-H23): – (Only GI% higher than 20% are shown)
Growth Percent (NCI-H23): 95.42%
GI% (CAKI-1): – (Only GI% higher than 20% are shown)
Growth Percent (CAKI-1): 82.90%
GI% (SF-268): 31%
Growth Percent (SF-268): 69.32%
GI% (IGROV1): – (Only GI% higher than 20% are shown)
Growth Percent (IGROV1): 107.30%
GI% (SF-295): 34%
Growth Percent (SF-295): 65.90%
GI% (ACHN): 24%
Growth Percent (ACHN): 76.34%
GI% (UACC-62): – (Only GI% higher than 20% are shown)
Growth Percent (UACC-62): 87.74%
GI% (NCI-H226): 25%
Growth Percent (NCI-H226): 75.32%
GI% (LOX IMVI): – (Only GI% higher than 20% are shown)
Growth Percent (LOX IMVI): 81.15%
GI% (SNB-19): 28%
Growth Percent (SNB-19): 71.76%
GI% (RPMI-8226): 29%
Growth Percent (RPMI-8226): 70.78%
GI% (NCI/ADR-RES): – (Only GI% higher than 20% are shown)
Growth Percent (NCI/ADR-RES): 89.49%
GI% (MCF7): – (Only GI% higher than 20% are shown)
Growth Percent (MCF7): 85.28%
GI% (DU-145): – (Only GI% higher than 20% are shown)
Growth Percent (DU-145): 96.55%
GI% (SK-OV-3): – (Only GI% higher than 20% are shown)
Growth Percent (SK-OV-3): 89.56%
Selectivity ratio II/IX (hCA IX): 1.72
Ki (hCA IX): 24200 nM
Ki (hCA I): > 100000 nM
Selectivity ratio I/XII (hCA XII): 109.9
Selectivity ratio II/XII (hCA XII): 45.82
Ki (hCA XII): 910 nM
GI% (CCRF-CEM): 21%
Growth Percent (CCRF-CEM): 78.66%
GI% (BT-549): – (Only GI% higher than 20% are shown)
Growth Percent (BT-549): 101.46%
GI% (A498): – (Only GI% higher than 20% are shown)
Growth Percent (A498): 95.15%
GI% (NCI-H322M): – (Only GI% higher than 20% are shown)
Growth Percent (NCI-H322M): 99.74%
GI% (HL-60(TB)): – (Only GI% higher than 20% are shown)
Growth Percent (HL-60(TB)): 85.11%
GI% (HOP-92): 29%
Growth Percent (HOP-92): 71.46%
GI% (HCT-15): 55%
Growth Percent (HCT-15): 45.38%
GI% (SK-MEL-2): – (Only GI% higher than 20% are shown)
Growth Percent (SK-MEL-2): 112.04%
GI% (UACC-257): – (Only GI% higher than 20% are shown)
Growth Percent (UACC-257): 111.51%

Cc1ccc(-c2nc(Nc3ccc(C(=O)O)cc3)c3ccccc3n2)cc1 [8b, 4-((2-(p-Tolyl)quinazolin-4-yl)amino)benzoic acid]
GI% (EKVX): 28%
Growth Percent (EKVX): 72.41%
GI% (NCI-H23): – (Only GI% higher than 20% are shown)
Growth Percent (NCI-H23): 87.14%
GI% (CAKI-1): – (Only GI% higher than 20% are shown)
Growth Percent (CAKI-1): 88.42%
GI% (SF-268): 30%
Growth Percent (SF-268): 70.34%
GI% (IGROV1): – (Only GI% higher than 20% are shown)
Growth Percent (IGROV1): 92.17%
GI% (SF-295): 42%
Growth Percent (SF-295): 57.85%
GI% (ACHN): 24%
Growth Percent (ACHN): 75.90%
GI% (UACC-62): – (Only GI% higher than 20% are shown)
Growth Percent (UACC-62): 95.83%
GI% (NCI-H226): 62%
Growth Percent (NCI-H226): 37.77%
GI% (LOX IMVI): 43%
Growth Percent (LOX IMVI): 57.05%
GI% (SNB-19): 29%
Growth Percent (SNB-19): 70.92%
GI% (RPMI-8226): 45%
Growth Percent (RPMI-8226): 55.07%
GI% (NCI/ADR-RES): 24%
Growth Percent (NCI/ADR-RES): 76.55%
GI% (MCF7): 37%
Growth Percent (MCF7): 63.19%
GI% (DU-145): – (Only GI% higher than 20% are shown)
Growth Percent (DU-145): 81.93%
GI% (SK-OV-3): – (Only GI% higher than 20% are shown)
Growth Percent (SK-OV-3): 99.63%
Selectivity ratio I/IX (hCA IX; KI hCA I / KI hCA IX): 45.8
Selectivity ratio II/IX (hCA IX): 2.44
Ki (hCA IX): 1600 nM
Ki (hCA I): 73200 nM
Selectivity ratio I/XII (hCA XII): 174.3
Selectivity ratio II/XII (hCA XII): 9.29
Ki (hCA XII): 420 nM
GI% (CCRF-CEM): 28%
Growth Percent (CCRF-CEM): 71.96%
GI% (BT-549): 41%
Growth Percent (BT-549): 59.16%
GI% (A498): – (Only GI% higher than 20% are shown)
Growth Percent (A498): 112.03%
GI% (NCI-H322M): – (Only GI% higher than 20% are shown)
Growth Percent (NCI-H322M): 84.20%
GI% (HL-60(TB)): 24%
Growth Percent (HL-60(TB)): 76.30%
GI% (HOP-92): 25%
Growth Percent (HOP-92): 75.22%
GI% (HCT-15): 49%
Growth Percent (HCT-15): 50.85%
GI% (SK-MEL-2): – (Only GI% higher than 20% are shown)
Growth Percent (SK-MEL-2): 113.45%
GI% (UACC-257): – (Only GI% higher than 20% are shown)
Growth Percent (UACC-257): 107.52%
